Tested on: Phospholipase A2 from Naja mocambique
Assay: in vitro phospholipase inhibiting activity (DPybPC fluorescence)
Format: biochemical
Conditions: compound 10^-5 M, substrate DPybPC 2 μM, pH 8.0, 25° C.

| SMILES | Phospholipase A2 Inhibition (%) |
| --- | --- |
| O=C(Nc1ccccc1C(=O)O)c1cccc(C=Cc2nc3ccccc3s2)c1 [Compound 13] | 73 |
| CCC(CC)(CNC(=O)c1cccc(C=Cc2nc3ccccc3s2)c1)C(=O)O [Compound 20] | 47 |

From patent US4925861A, “Carboxystyrene derivatives and drugs containing them as effective ingredients” (Mitsubishi Kasei Corporation, priority 1987, dated 1990)
